Experimental data reported in ChEMBL document CHEMBL1201862, “PubChem BioAssay data set” (2004).
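These data come from cells grown in 96-well plates and exposed to compound for 48 hours at five concentrations. Abbreviation: GI50, concentration required for 50% inhibition of growth.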 Calls of active or inactive are those of the source. Rule as the data show it: active = GI50 up to about 1.1 µM and inactive = higher.

What was measured:
Test in all cases: DTP human tumour cell line panel, 48 h
A549 = tested on: A549
OVCAR-5 = tested on: OVCAR-5
SF-268 = tested on: SF-268
OVCAR-4 = tested on: OVCAR-4
SR = tested on: SR
U-251 = tested on: U-251
786-0 = tested on: 786-0
PC-3 = tested on: PC-3
SK-MEL-2 = tested on: SK-MEL-2
HT-29 = tested on: HT-29
UO-31 = tested on: UO-31
HOP-92 = tested on: HOP-92
SNB-75 = tested on: SNB-75
UACC-62 = tested on: UACC-62
MDA-N = tested on: MDA-N
MDA-MB-231 = tested on: MDA-MB-231
CAKI-1 = tested on: CAKI-1
UACC-257 = tested on: UACC-257
IGROV-1 = tested on: IGROV-1
SNB-19 = tested on: SNB-19
NCI-H522 = tested on: NCI-H522
SK-OV-3 = tested on: SK-OV-3
NCI-H23 = tested on: NCI-H23
M14 = tested on: M14
MCF7 = tested on: MCF7
COLO 205 = tested on: COLO 205
MOLT-4 = tested on: MOLT-4
HCC 2998 = tested on: HCC 2998
HCT-15 = tested on: HCT-15
HOP-62 = tested on: HOP-62
RPMI-8226 = tested on: RPMI-8226
SF-295 = tested on: SF-295
EKVX = tested on: EKVX
CCRF-CEM = tested on: CCRF-CEM
NCI/ADR-RES = tested on: NCI/ADR-RES
ACHN = tested on: ACHN
NCI-H460 = tested on: NCI-H460
T47D = tested on: T47D
TK-10 = tested on: TK-10
SF-539 = tested on: SF-539
HCT-116 = tested on: HCT-116
Hs-578T = tested on: Hs-578T
SW-620 = tested on: SW-620
OVCAR-8 = tested on: OVCAR-8
SK-MEL-5 = tested on: SK-MEL-5
NCI-H226 = tested on: NCI-H226
OVCAR-3 = tested on: OVCAR-3
BT-549 = tested on: BT-549
DU-145 = tested on: DU-145
MDA-MB-435 = tested on: MDA-MB-435
K562 = tested on: K562
KM12 = tested on: KM12
SK-MEL-28 = tested on: SK-MEL-28
A498 = tested on: A498
RXF 393 = tested on: RXF 393
SN12C = tested on: SN12C

COc1ccc(/N=N/C(=N\c2ccc(Cl)cc2)c2ccc(N(CCC#N)CCC#N)cc2)cc1
GI50 (A549): 47.6 µM (inactive)
GI50 (OVCAR-5): 47 µM (inactive)
GI50 (SF-268): 41.3 µM (inactive)
GI50 (OVCAR-4): 10.1 µM (inactive)
GI50 (SR): 834 nM (active)
GI50 (U-251): 41.4 µM (inactive)
GI50 (786-0): 83.8 µM (inactive)
GI50 (PC-3): 25.5 µM (inactive)
GI50 (SK-MEL-2): 851 nM (active)
GI50 (HT-29): > 100 µM (inactive)
GI50 (UO-31): 5.06 µM (inactive)
GI50 (HOP-92): 33.2 µM (inactive)
GI50 (SNB-75): 39 µM (inactive)
GI50 (UACC-62): 1.49 µM (inactive)
GI50 (MDA-N): 37.4 µM (inactive)
GI50 (MDA-MB-231): 14.8 µM (inactive)
GI50 (CAKI-1): 27.2 µM (inactive)
GI50 (UACC-257): 11.4 µM (inactive)
GI50 (IGROV-1): 56.4 µM (inactive)
GI50 (SNB-19): > 100 µM (inactive)
GI50 (NCI-H522): 17.4 µM (inactive)
GI50 (SK-OV-3): > 100 µM (inactive)
GI50 (NCI-H23): 40.9 µM (inactive)
GI50 (M14): 57.5 µM (inactive)
GI50 (MCF7): 8.05 µM (inactive)
GI50 (COLO 205): 5.19 µM (inactive)
GI50 (MOLT-4): 15.3 µM (inactive)
GI50 (HCC 2998): 4.91 µM (inactive)
GI50 (HCT-15): 2390 nM
GI50 (HOP-62): 79.3 µM (inactive)
GI50 (RPMI-8226): 34.5 µM (inactive)
GI50 (SF-295): 2.2 µM (inactive)
GI50 (EKVX): 51.4 µM (inactive)
GI50 (CCRF-CEM): < 10 nM (active)
GI50 (NCI/ADR-RES): 10.5 µM (inactive)
GI50 (ACHN): 19.9 µM (inactive)
GI50 (NCI-H460): 10.1 µM (inactive)
GI50 (T47D): 1.71 µM (inactive)
GI50 (TK-10): 38.7 µM (inactive)
GI50 (SF-539): > 100 µM (inactive)
GI50 (HCT-116): 43.9 µM (inactive)
GI50 (Hs-578T): 87.9 µM (inactive)
GI50 (SW-620): 24.7 µM (inactive)
GI50 (OVCAR-8): > 100 µM (inactive)
GI50 (SK-MEL-5): 755 nM (active)
GI50 (NCI-H226): > 100 µM (inactive)
GI50 (OVCAR-3): 23.9 µM (inactive)
GI50 (BT-549): 12.6 µM (inactive)
GI50 (DU-145): 20 µM (inactive)
GI50 (MDA-MB-435): 7.23 µM (inactive)
GI50 (K562): 26.4 µM (inactive)
GI50 (KM12): 15.6 µM (inactive)
GI50 (SK-MEL-28): > 100 µM (inactive)
GI50 (A498): 10.4 µM (inactive)
GI50 (RXF 393): 12.7 µM (inactive)
GI50 (SN12C): > 100 µM (inactive)
